SMILES strings stand for the structures.

For test [1], the species on record is Homo sapiens. As to the kind of experiment: Reduction in pain intensity in diabetic neuropathy patient. It is filed as functional. Also noted: scale not given: the % may be the effect or the level left.
Test [2] is filed under the species Homo sapiens. As to the kind of experiment: Reduction in post-surgical neuropathic pain intensity in cancer patient. It is filed as functional. The arrangement: scale not given: the % may be the effect or the level left.

Regarding `COc1ccc2c(c1)[C@]13CCCC[C@@H]1[C@H](C2)N(C)CC3` [DEXTROMETHORPHAN], in test [1], the Activity was 24%. In test [2], `NC12CC3CC(CC(C3)C1)C2` [AMANTADINE] returned an Activity of 31%.

The values above are taken from ChEMBL document CHEMBL1141457, “N-methyl-D-aspartate antagonists and neuropathic pain: the search for relief” (2007).
